Source: patent US12358895B2, “Process for manufacture of (S)-N-(3-((2-((4-((1-acetylpyrrolidin-3-yl)(methyl)amino)phenyl)amino)-5-methoxypyrimidin-4-yl)oxy)phenyl)acrylamide, and formulations thereof” (ACEA Therapeutics, Inc., priority 2018, dated 2025)

Experiments:
Assay type in all cases: physicochemical
[1] = Storage stability of encapsulated Compound A-TA in HDPE bottle with deoxidizer; conditions: opaque HDPE bottle, LDPE cap, deoxidizer (PharmaKeep CD20)
[2] = Chemical and polymorphic stability of solid forms
[3] = pKa of the drug substance freebase
Text: (§1) The drug substance freebase is a weakly basic compound with a pKa of approximately 5.3. The aqueous solubility of the freebase is pH dependent. […] To enhance the absorption and bioavailability, a tartrate salt (Compound A-TA) was made to enhance the dissolution of the molecule in compositions intended for oral administration.

Aqueous solubility = assay: Aqueous solubility
Text: Therefore, the L-(+)-tartrate salt of Compound A, referred to hereinafter as Compound A L-(+)-tartrate, or Compound A-TA, is especially suited for development and is used in many of the compositions and methods herein.
as §1

storage stability at 40° C. and 75% relative humidity ([1]; up to 6 months)	storage stability at 25° C. and 60% relative humidity ([1]; up to 24 months)	chemical and polymorphic stability [2]	pKa [3]	water solubility (Aqueous solubility)	aqueous solubility at higher pH (Aqueous solubility)	aqueous solubility at higher pH (Aqueous solubility; listed as freebase)	aqueous solubility at lower pH (Aqueous solubility; lower pH)	SMILES
highly stable	highly stable	high chemical and polymorphic stability						C=CC(=O)Nc1cccc(Oc2nc(Nc3ccc(N(C)[C@H]4CCN(C(C)=O)C4)cc3)ncc2OC)c1.O=C(O)C(O)C(O)C(=O)O [Compound A-TA, (S)—N-(3-((2-((4-((1-acetylpyrrolidin-3-yl)(methyl)amino)phenyl)amino)-5-methoxypyrimidin-4-yl)oxy)phenyl)acrylamide L-(+)-tartrate dihydrate]
			~5.3	low water solubility	nearly insoluble	almost insoluble	increases dramatically	C=CC(=O)Nc1cccc(Oc2nc(Nc3ccc(N(C)[C@H]4CCN(C(C)=O)C4)cc3)ncc2OC)c1 [Compound A, (S)—N-(3-(2-(4-((1-acetylpyrrolidin-3-yl)(methyl)amino)phenylamino)-5-methoxypyrimidin-4-yloxy)phenyl)acrylamide]
